Laboratory results from ChEMBL document CHEMBL5608235, “Tricyclic Benzo[1,3]oxazinyloxazolidinones as Potent Antibacterial Agents against Drug-Resistant Pathogens” (J Med Chem, 2024).
≈ marks a conversion by molar mass, not a printed value. Calls of active or inactive are those of the source. No cut-off for these calls is given here.

Key:
[1] = tested on: Staphylococcus aureus; assay: Antibacterial activity against Staphylococcus aureus ATCC25923 assessed as inhibition of bacterial growth incubated for 18 hrs by microdilution broth assay; type: functional
[2] = tested on: Staphylococcus aureus; assay: Antibacterial activity against methicillin resistant Staphylococcus aureus clinical isolate 20-1 assessed as inhibition of bacterial growth incubated for 7 days by alamar blue assay; type: functional; settings: clinical isolate 20-1, 168 h, time 7 day
[3] = tested on: Enterococcus; assay: Antibacterial activity against vancomycin resistant Enterococcus clinical isolate 20-1 assessed as inhibition of bacterial growth incubated for 7 days by alamar blue assay; type: functional; settings: clinical isolate 20-1, 168 h, time 7 day
[4] = Cmax in BALB/c mouse at 1 mg/kg,iv administration measured upto 24 hrs by LC-MS/MS analysis; type: ADME, organism-based; settings: in vivo
[5] = AUC (0 to t) in BALB/c mouse at 1 mg/kg,iv administration measured upto 24 hrs by LC-MS/MS analysis; type: ADME, organism-based; settings: in vivo
[6] = MRT (0 to infinity) in BALB/c mouse at 1 mg/kg,iv administration measured upto 24 hrs by LC-MS/MS analysis; type: ADME, organism-based; settings: in vivo
[7] = tested on: Staphylococcus aureus; assay: Antibacterial activity against vancomycin resistant Staphylococcus aureus assessed as inhibition of bacterial growth incubated for 7 days by alamar blue assay; type: functional; settings: 168 h, time 7 day
[8] = tested on: Staphylococcus aureus; assay: (§1) Antibacterial activity against methicillin resistant Staphylococcus aureus ATCC 33592 infected in cyclophosphamide-induced immunosuppressed Kunming mouse assessed as reduction in bacterial load in spleen at 10 to 50 mg/kg,po administration measured after 24 hrs by hematoxylin and eosin staining based microscopy; type: functional, organism-based; settings: dose 10-50 mg/kg
[9] = tested on: Staphylococcus aureus; assay: as §1, with “lung” for “spleen”; type: functional, organism-based; settings: dose 10-50 mg/kg
[10] = tested on: Staphylococcus aureus; assay: as §1, with “kidney” for “spleen”, “25” for “10”; type: functional, organism-based; settings: dose 25-50 mg/kg
[11] = tested on: Staphylococcus aureus; assay: as §1, with “histopathological change” for “bacterial load”, “heart” for “spleen”; type: functional, organism-based; settings: dose 10-50 mg/kg
[12] = tested on: Staphylococcus aureus; assay: as §1, with “pigment deposition” for “bacterial load”, “at” for “at 10 to”; type: functional, organism-based
[13] = tested on: Cell membrane; assay: Disruption of cell membrane integrity in methicillin resistant Staphylococcus aureus ATCC 33592 assessed as increase in red fluorescence at 0.5 ug/ml incubated for 1 hr by […] and propidium iodide double staining based confocal microscopic analysis; type: cell membranes; settings: dose 0.5 µg/ml
[14] = tested on: Cell membrane; assay: Disruption of cell membrane integrity in methicillin resistant Staphylococcus aureus ATCC 33592 assessed as increase in blue fluorescence at 1 ug/ml incubated for 1 hr by […] and propidium iodide double staining based confocal microscopic analysis; type: cell membranes; settings: dose 1.0 µg/ml
[15] = tested on: Cell membrane; assay: Disruption of cell membrane in methicillin resistant Staphylococcus aureus ATCC 33592 assessed as cell surface perforation at 0.5 ug/ml incubated for 6 hrs by Scanning electron microscopic analysis; type: cell membranes; settings: dose 0.5 µg/ml
[16] = tested on: Staphylococcus aureus; assay: Inhibition of biofilm formation in methicillin resistant Staphylococcus aureus ATCC 33592 at 0.1 to 10 ug/ml incubated for 48 hrs by crystal violet staining based assay; type: functional, organism-based; settings: dose 0.1-10 µg/ml

CC(=O)NC[C@@H]1OC(=O)N2Cc3cc(-c4ccc(C#N)cc4)c(F)cc3O[C@@H]12
MIC [1]: 0.5 µg/mL (≈ 1.31 µM) | MIC [2]: 0.5 µg/mL (≈ 1.31 µM) | MIC [3]: 0.5 µg/mL (≈ 1.31 µM) | Cmax [4]: 814 ng/mL | AUC(0-t) at 24 h [5]: 5120 ng·h/mL | MRT inf [6]: 6.7 h | MIC [7]: 1 µg/mL (≈ 2.62 µM) | Activity [8]: Active | Activity [9]: Active | Activity [10]: Active | Activity [11]: Active | Activity [12]: Active | Activity [13]: Active | Activity [14]: Active | Activity [15]: Active | inhibition [16]: Active
